From ChEMBL document CHEMBL1201862, “PubChem BioAssay data set” (2004)
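Growth conditions: 96-well plates. Treatment: test compound, 48 hours, 5 concentrations. Analysis: linear interpolation between bracketing concentrations; unreached endpoints set to highest concentration. Here, GI50 denotes the concentration required for 50% inhibition of growth.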 The source made the active and inactive calls. Rule as the data show it: active = GI50 up to about 1.1 µM and inactive = higher.

Tests used:
Assay in all cases: NCI tumour cell line growth inhibition, 48 h
HOP-18 = system: HOP-18
M19-MEL = system: M19-MEL
SNB-78 = system: SNB-78
LXFL 529 = system: LXFL 529
RXF 631 = system: RXF 631
DMS-273 = system: DMS-273
DLD-1 = system: DLD-1
DMS-114 = system: DMS-114
XF498 = system: XF498

| SMILES | GI50 (HOP-18) | GI50 (M19-MEL) | GI50 (SNB-78) | GI50 (LXFL 529) | GI50 (RXF 631) | GI50 (DMS-273) | GI50 (DLD-1) | GI50 (DMS-114) | GI50 (XF498) |
| --- | --- | --- | --- | --- | --- | --- | --- | --- | --- |
| CC1(Cc2ccccc2)NC(=S)NC1=O (centres undefined) | 0.143 µM (active) | > 100 µM (inactive) | > 100 µM (inactive) | > 100 µM (inactive) | > 100 µM (inactive) | > 100 µM (inactive) | > 100 µM (inactive) | > 100 µM (inactive) | – |
| O=C(CSc1nnc(-c2ccc(/N=C\c3ccc(Cl)cc3)cc2)o1)Nc1ccc([N+](=O)[O-])cc1 | 29 µM (inactive) | 17.1 µM (inactive) | 20 µM (inactive) | 15.8 µM (inactive) | – | 16.5 µM (inactive) | – | 16.2 µM (inactive) | 22.9 µM (inactive) |
| O=C(O)C1(C(=O)O)CC1 | > 100 µM (inactive) | > 100 µM (inactive) | > 100 µM (inactive) | > 100 µM (inactive) | > 100 µM (inactive) | > 100 µM (inactive) | > 100 µM (inactive) | > 100 µM (inactive) | > 100 µM (inactive) |
| CCc1c(C#N)c(=O)[nH]c(=O)n1CCN1CCN(C(=O)NCCCCCCNC(=O)N2CCN(CCn3c(CC)c(C#N)c(=O)[nH]c3=O)CC2)CC1 | > 100 µM (inactive) | > 100 µM (inactive) | > 100 µM (inactive) | > 100 µM (inactive) | > 100 µM (inactive) | > 100 µM (inactive) | > 100 µM (inactive) | > 100 µM (inactive) | > 100 µM (inactive) |
| O=C(CSc1nnc(-c2ccc(/N=C\c3ccc(Cl)cc3)cc2)o1)Nc1cccc([N+](=O)[O-])c1 | > 100 µM (inactive) | > 100 µM (inactive) | > 100 µM (inactive) | > 100 µM (inactive) | – | > 100 µM (inactive) | – | > 100 µM (inactive) | – |
| O=C(c1nc2ccc(Cl)cc2nc1O)C(O)c1ccc2c(c1)OCO2 (centres undefined) | 12.8 µM (inactive) | > 100 µM (inactive) | – | 77.6 µM (inactive) | > 100 µM (inactive) | > 100 µM (inactive) | > 100 µM (inactive) | 8.43 µM (inactive) | > 100 µM (inactive) |
| O=C(c1ccccc1)C(c1ccccc1)C1(O)C(=O)Nc2ccc(Br)cc21 (centres undefined) | – | 15.4 µM (inactive) | > 100 µM (inactive) | 19.8 µM (inactive) | 33.7 µM (inactive) | 31.6 µM (inactive) | 48.2 µM (inactive) | 21.6 µM (inactive) | – |
| Cc1c(C(=O)C/C(=N/NC(=O)C[N+](C)(C)C)C(=O)Nc2ccc(Cl)cc2)[n+]([O-])c2ccccc2[n+]1[O-] | > 100 µM (inactive) | > 100 µM (inactive) | > 100 µM (inactive) | > 100 µM (inactive) | > 100 µM (inactive) | > 100 µM (inactive) | > 100 µM (inactive) | > 100 µM (inactive) | > 100 µM (inactive) |
| COc1ccccc1-c1cc(=O)c2cc(C)c(C)c(C(=O)O)c2o1 | – | > 100 µM (inactive) | > 100 µM (inactive) | > 100 µM (inactive) | – | > 100 µM (inactive) | > 100 µM (inactive) | > 100 µM (inactive) | > 100 µM (inactive) |
| O=C1C(=O)N(c2nccs2)C(=O)C(=O)C1c1nc2ccccc2s1 | 9.23 µM (inactive) | > 100 µM (inactive) | > 100 µM (inactive) | 94 µM (inactive) | – | > 100 µM (inactive) | > 100 µM (inactive) | > 100 µM (inactive) | > 100 µM (inactive) |
| O=C1N(c2ccc(Cl)cc2)C(=O)C2(SC=NN2Cc2ccccc2)N1c1ccc(Cl)cc1 (centres undefined) | > 100 µM (inactive) | > 100 µM (inactive) | > 100 µM (inactive) | > 100 µM (inactive) | > 100 µM (inactive) | – | > 100 µM (inactive) | 12.3 µM (inactive) | 28.6 µM (inactive) |
| Cc1cc(Cl)ccc1NC(=O)C(=O)C(C(=O)c1ccc2ccccc2c1)C1OC(=O)c2ccccc21 (centres undefined) | 0.544 µM (active) | 10.1 µM (inactive) | 10.3 µM (inactive) | 6.47 µM (inactive) | 7.89 µM (inactive) | 12.4 µM (inactive) | 14.3 µM (inactive) | 6.15 µM (inactive) | – |
| O=C1C2=C(c3ccccc31)C(c1ccccc1)N1C(=O)CSC1=N2 (centres undefined) | – | > 100 µM (inactive) | – | 52 µM (inactive) | 80.9 µM (inactive) | 55.8 µM (inactive) | > 100 µM (inactive) | 43.1 µM (inactive) | > 100 µM (inactive) |
| O=c1[nH]c(=O)n(C2OC(COP(=O)(O)OP(=O)(O)OC3OC(CO)C(O)C(O)C3O)C(O)C2O)cc1F (centres undefined) | 3.22 µM (inactive) | 0.191 µM (active) | 0.366 µM (active) | 0.151 µM (active) | 0.0716 µM (active) | – | < 0.0119 µM (active) | 1.13 µM (inactive) | 0.277 µM (active) |
| COc1cccc(N2C(=O)/C(=C/c3ccc(N(CCC#N)CCC#N)cc3)N=C2c2cc([N+](=O)[O-])ccc2Cl)c1 | > 100 µM (inactive) | – | > 100 µM (inactive) | 67.9 µM (inactive) | > 100 µM (inactive) | 38.2 µM (inactive) | 60 µM (inactive) | > 100 µM (inactive) | – |
| Nc1c(C(=O)Nc2ccccc2O)[n+]([O-])c2ccccc2[n+]1[O-] | > 100 µM (inactive) | 14.2 µM (inactive) | > 100 µM (inactive) | > 100 µM (inactive) | 50.6 µM (inactive) | 32.6 µM (inactive) | > 100 µM (inactive) | 20.5 µM (inactive) | – |
| C/C(=N\NC(=S)NC(CCC(=O)O)C(=O)O)c1ccccn1 (centres undefined) | > 100 µM (inactive) | > 100 µM (inactive) | > 100 µM (inactive) | > 100 µM (inactive) | > 100 µM (inactive) | – | > 100 µM (inactive) | > 100 µM (inactive) | > 100 µM (inactive) |
| O=C(Nc1ccccc1)OCc1nc2c([nH]1)C(=O)C=CC2=O | 10.5 µM (inactive) | 16 µM (inactive) | 23.2 µM (inactive) | 3.1 µM (inactive) | – | 24.2 µM (inactive) | > 100 µM (inactive) | – | 17.2 µM (inactive) |
| CC(CCC=O)CCOCc1ccccc1 (centres undefined) | > 100 µM (inactive) | > 73.8 µM (inactive) | > 100 µM (inactive) | > 100 µM (inactive) | – | > 95.9 µM (inactive) | > 100 µM (inactive) | 61.2 µM (inactive) | > 100 µM (inactive) |
| CN(C)C(=S)Nc1nnc(NC23CC4CC(CC(C4)C2)C3)s1.[O-][Cl+3]([O-])([O-])O | – | 19.6 µM (inactive) | 39.2 µM (inactive) | – | – | 20.6 µM (inactive) | – | 19.4 µM (inactive) | – |
| CCC12C[N+]3([O-])CCc4c([nH]c5ccccc45)C(C(=O)OC)(c4cc5c(cc4OC)N(C)C4C(O)(C(=O)OC)C(OC(C)=O)C6(CC)C=CCN7CCC54C76)CC(C3)C1O2 (centres undefined) | 16 µM (inactive) | 0.617 µM (active) | 0.506 µM (active) | 0.656 µM (active) | – | 0.237 µM (active) | 0.883 µM (active) | 0.36 µM (active) | 0.407 µM (active) |
| COC1=CC(=O)C(Br)=CC1=O | – | 17.7 µM (inactive) | > 10 µM (inactive) | 17.2 µM (inactive) | 31.6 µM (inactive) | > 10 µM (inactive) | 32.3 µM (inactive) | 20.5 µM (inactive) | 16.9 µM (inactive) |
| COC(=O)/C(=N\NC(=O)c1ccccc1O)C(C#N)c1ccc(Cl)cc1 (centres undefined) | 69.3 µM (inactive) | 75.9 µM (inactive) | 26.2 µM (inactive) | 34.3 µM (inactive) | 36.1 µM (inactive) | – | 24.5 µM (inactive) | 24.7 µM (inactive) | – |
